Here are results for 15 molecules from patent US20260327655A1, “SMALL-MOLECULE REGULATED ALTERNATIVE SPLICING” (priority 2023, published 2026).

Like-named read-outs stand apart in the source and are kept apart here.

Format in all cases: cell-based
What all share (settings): Homo sapiens

In test [1] the test system is RS1-10 minigene (Firefly Luciferase), HEK-293T cells. Briefly: Luciferase induction assay, RS1-10 with splice modulator compounds in HEK-293T cells. The method, then:
(§1) HEK-293T cells were cultured in DMEM+10% FBS, collected after trypsinization, and then dispensed into 96-well plates (cell culture-treated). Each well of the plate was seeded with 1.0×10^5 cells in 100 μL culture medium. After a 1-hour incubation in a tissue culture incubator (5% CO2, 37 degrees C.), plasmid DNA was complexed with a transfection reagent, such as Lipofectamine 3000, and added to respective wells on the plate. Each well received an equivalent of 100 ng of plasmid DNA complexed with 0.15 μL Lipofectamine. Triplicate wells were used for each condition tested in the experiment. The plasmid utilized in the experiment encoded a CMV promoter upstream of the RS I-10 variant that controlled the expression of a Firefly Luciferase gene followed by a SV40 polyadenylation signal. After a 10-minute incubation at room temperature, either DMSO vehicle or specified compound at specified dose was added to the wells of the plate. Plates were then incubated for 18 hours in a tissue culture incubator. Endpoint analysis was performed by adding 100 uL Steady-Luc Firefly Luciferase substrate to each well of the assay plate. After mixing, the liquid contents of each was transferred to a 96-well plate, mixed again for 2 min on an orbital shaker, and incubated at room temperature for 5 min. Finally, the luminescent signal from each well was measured with a with PerkinElmer Envision plate reader. The results of this assay show RS1-10 responded to the majority of the splice modulator compounds used in a dose responsive manner (FIG. 9C). Bars represent mean+/−standard deviation of 3 wells normalized to vehicle controls.

Test [2] has as its system RS2-3 minigene (Firefly Luciferase), HEK-293T cells. Nature of the test: Luciferase induction assay, RS2-3 with splice modulator compounds in HEK-293T cells. How it is done: as §1, with “RS2-3” for “RS I-10”, “RS2-3” for “RS1-10”, “used” for “used in a dose responsive manner”, “13C)” for “9C).”
The test system of test [3] is RS3-13 minigene (Firefly Luciferase), HEK-293T cells. Nature of the test: Luciferase induction assay, RS3-13 with splice modulator compounds in HEK-293T cells. The method, then:
as §1, with “RS3-13” for “the RS I-10 variant”, “RS3-13” for “RS1-10”, “used” for “used in a dose responsive manner”, “14D)” for “9C).”

The mark [4] stands for this setting: RS1-10, 100 nM, 18 hours, n of 3, read-out: Mean fold-induction of luciferase (relative to vehicle control).
Setting [5] is: RS1-10, 1,000 nM, 18 hours, n of 3, read-out: Mean fold-induction of luciferase (relative to vehicle control).
The mark [6] stands for this setting: RS2-3, 100 nM, 18 hours, n of 3, read-out: Mean fold-induction of luciferase (relative to vehicle control).
Where [7] appears, read: RS2-3, 1,000 nM, 18 hours, n of 3, read-out: Mean fold-induction of luciferase (relative to vehicle control).
Where [8] appears, read: RS3-13, 100 nM, 18 hours, n of 3, read-out: Mean fold-induction of luciferase (relative to vehicle control).
[9] abbreviates: RS3-13, 1,000 nM, 18 hours, n of 3, read-out: Mean fold-induction of luciferase (relative to vehicle control).
Setting [10] is: 18 h, read-out: Mean fold-induction of luciferase (relative to vehicle control).

For the molecule `Cc1cn2cc(-c3cc(O)c(-c4ccc(C5CNC5)nn4)cc3F)cc(F)c2n1` [Compound 8A], the fold induction at 0.1 µM in test [1] (setting [4]) was 41.5; in test [2] (setting [6]), 4.1; in test [3] (setting [8]) it was 2.11. The figures for the fold induction at 1 µM in test [1] (setting [5]), in test [2] (setting [7]) and in test [3] (setting [9]) were 79.2, 16 and 9.79, respectively.

Take `Cc1cn2cc(-c3nc(=O)n4cc(N5CCN[C@@H](C)C5)cc(F)c4n3)cc(C)c2n1` [Compound 121B]: the fold induction at 0.1 µM in test [1] (setting [4]) worked out at 24.6; in test [2] (setting [6]) it was 9.41; in test [3] (setting [8]) it was 9.95. The fold induction at 1 µM in test [1] (setting [5]) came out at 73.5; in test [2] (setting [7]), 28.8; in test [3] (setting [9]), 46.

In the case of `Cc1cn2cc(-c3ccc(-c4ccc(C5CNC5)nn4)c(O)c3F)cc(F)c2n1` [Compound 10A], the fold induction at 0.1 µM worked out at 65.9 in test [1] (setting [4]), 11.1 in test [2] (setting [6]) and 10.1 in test [3] (setting [8]). The fold induction at 1 µM turned out to be 96 in test [1] (setting [5]), 29.2 in test [2] (setting [7]) and 43.6 in test [3] (setting [9]).

Consider `Cc1cn2cc(-c3nc(=O)n4cc(C5=CCNCC5)ccc4n3)cc(F)c2n1` [Compound 111B], for which the figures for the fold induction at 0.1 µM in test [1] (setting [10]), in test [2] (setting [10]) and in test [3] (setting [10]) were 3.06, 1.6 and 1.32, respectively. In addition, the fold induction at 1 µM amounted to 48.4 in test [1] (setting [10]), 2.97 in test [2] (setting [10]) and 1.63 in test [3] (setting [10]).

Consider `Cc1cn2cc(-c3nc(=O)n4cc(N5CCNCC5)ccc4n3)cc(C)c2n1` [Compound 126B], for which the fold induction at 0.1 µM in test [1] (setting [4]) came to 2.06; in test [2] (setting [6]), 5.18; in test [3] (setting [8]), 3.46. The fold induction at 1 µM was found to be 41.5 in test [1] (setting [5]), 17.8 in test [2] (setting [7]) and 25.2 in test [3] (setting [9]).

With `Cc1cn2cc(-c3ccc(-c4ccc(C5CN(C(C)C)C5)nn4)c(O)c3)cc(F)c2n1` [Compound 15A], the figures for the fold induction at 0.1 µM in test [1] (setting [4]), in test [2] (setting [6]) and in test [3] (setting [8]) were 79, 17 and 20.6, respectively. Besides, the figures for the fold induction at 1 µM in test [1] (setting [5]), in test [2] (setting [7]) and in test [3] (setting [9]) were 82, 39.4 and 54.5, respectively.

On to `Cc1cc2cc(-c3nc(=O)n4cc(N5CCNC(C)(C)C5)cc(F)c4n3)cc(C)n2n1` [Compound 135B], for which the figures for the fold induction at 0.1 µM in test [1] (setting [4]), in test [2] (setting [6]) and in test [3] (setting [8]) were 16.1, 7.61 and 5.99, respectively. Further, the results for the fold induction at 1 µM in test [1] (setting [5]), in test [2] (setting [7]) and in test [3] (setting [9]) were 48.8, 14.7 and 16.1, respectively.

With `Cc1cc2cc(-c3ccc(-c4ccc(C5CN(C6CCOCC6)C5)nn4)c(O)c3)ccn2n1` [Compound 192A], the fold induction at 0.1 µM in test [1] (setting [4]) worked out at 51.3; in test [2] (setting [6]), 4.97; in test [3] (setting [8]), 2.18. For the same molecule, the results for the fold induction at 1 µM in test [1] (setting [5]), in test [2] (setting [7]) and in test [3] (setting [9]) were 70.8, 22.7 and 13.4, respectively.

On to `Cc1cn2cc(-c3ccc(-c4ccc(C5CN(Cc6cocn6)C5)nn4)c(O)c3)cc(F)c2n1` [Compound 101A], for which the results for the fold induction at 0.1 µM in test [1] (setting [4]), in test [2] (setting [6]) and in test [3] (setting [8]) were 57.5, 8.48 and 6, respectively. The figures for the fold induction at 1 µM in test [1] (setting [5]), in test [2] (setting [7]) and in test [3] (setting [9]) were 86.8, 31.5 and 34.2, respectively.

Consider `Cc1cn2cc(-c3nc(=O)n4cc(N5CCNCC5)cc(C)c4n3)cc(F)c2n1` [Compound 108B], for which the fold induction at 0.1 µM is 1.16 in test [1] (setting [4]), 1.65 in test [2] (setting [6]) and 1.41 in test [3] (setting [8]). Further, the fold induction at 1 µM worked out at 1.43 in test [1] (setting [5]), 1.76 in test [2] (setting [7]) and 1.66 in test [3] (setting [9]).

`Cc1cn2cc(-c3nc(=O)n4cc(N5CCN[C@@H](C)C5)cc(C)c4n3)cc(F)c2n1` [Compound 117B]: the figures for the fold induction at 0.1 µM in test [1] (setting [4]), in test [2] (setting [6]) and in test [3] (setting [8]) were 52.1, 15.2 and 22.8, respectively. Further, the fold induction at 1 µM was 73.5 in test [1] (setting [5]), 39.9 in test [2] (setting [7]) and 55.6 in test [3] (setting [9]).

`CCN1CC(c2ccc(-c3ccc(-c4cn5cc(C)nc5c(C)n4)cc3O)nn2)C1` [Compound 32A]: the values for the fold induction at 0.1 µM in test [1] (setting [4]), in test [2] (setting [6]) and in test [3] (setting [8]) were 53.5, 5.9 and 3.24, respectively. For the same molecule, the figures for the fold induction at 1 µM in test [1] (setting [5]), in test [2] (setting [7]) and in test [3] (setting [9]) were 83.1, 23.3 and 23, respectively.

As for `Cc1cn2nc(-c3ccc(-c4ccc(C5CNC5)nn4)c(O)c3)cc(C)c2n1` [Compound 3A], the fold induction at 0.1 µM is 31.7 in test [1] (setting [4]), 2.86 in test [2] (setting [6]) and 1.81 in test [3] (setting [8]). In addition, the fold induction at 1 µM in test [1] (setting [5]) came to 94.7; in test [2] (setting [7]), 17.6; in test [3] (setting [9]), 10.2.

As to `Cc1cc(-c2ccc(-c3ccc(C4CNC4)nn3)c(O)c2)cc2cn(C)nc12` [Compound 6A], the fold induction at 0.1 µM in test [1] (setting [4]) was determined as 29.4; in test [2] (setting [6]) it was 2.54; in test [3] (setting [8]) it was 1.69. Besides, the fold induction at 1 µM came to 69.6 in test [1] (setting [5]), 13.9 in test [2] (setting [7]) and 7.94 in test [3] (setting [9]).

With `Cc1cn2cc(-c3ccc(-c4ccc(C5CN(C6CCOC(C)(C)C6)C5)nn4)c(O)c3)cc(F)c2n1` (stereo not drawn) [Compound 86A], the fold induction at 0.1 µM in test [1] (setting [4]) turned out to be 56.1; in test [2] (setting [6]), 7.86; in test [3] (setting [8]) it was 7.54. The fold induction at 1 µM in test [1] (setting [5]) amounted to 85.1; in test [2] (setting [7]) it was 27.7; in test [3] (setting [9]), 31.3.
